*1 amine or outer side, *2 acyl side, *3 side chain or, on linkers, in order; H or OH if unused. Where a SMILES comes first, the peptide text is derived from it. Side-chain parts run from the residue outwards. [ ]: non-standard residue; d: D form. The star is where a group is joined. C20 diacid = O=C(O)CCCCCCCCCCCCCCCCCCC(=O)*; C18 diacid = O=C(O)CCCCCCCCCCCCCCCCC(=O)*; γGlu = O=C(O)[C@H](CCC(=O)[*:2])N[*:1]; αMeF = C[C@](N)(Cc1ccccc1)C(=O)O; 4Pal = N[C@@H](Cc1ccncc1)C(=O)O; αMeL = CC(C)C[C@](C)(N)C(=O)O; Iva = CC[C@](C)(N)C(=O)O; AEEA = NCCOCCOCC(=O)O; Aib = CC(C)(N)C(=O)O
Columns and labels:
Experiment in all cases: cAMP functional assay (HTRF) in HEK293 cells in presence of 0.1% casein
Assay type in all cases: cell-based
[1] = biological target: T1, human GLP-1 receptor (GLP-1R) (Homo sapiens, UniProt P43220); settings: HEK293 cells expressing human GLP-1R, geometric mean, read-out: hGLP1R cAMP Rel EC50 nM (SEM, n)
T1 construct: expressed in transfected cells; host or cells: HEK293

[2] = biological target: T2, human glucagon receptor (GcgR) (Homo sapiens, UniProt P47871); settings: HEK293 cells expressing human GcgR, geometric mean, read-out: hGcgR cAMP Rel EC50 nM (SEM, n)
T2 construct: expressed in transfected cells; host or cells: HEK293

[3] = biological target: T3, human glucose-dependent insulinotropic peptide receptor (GIPR) (Homo sapiens, UniProt P48546); settings: HEK293 cells expressing human GIPR, geometric mean, read-out: hGIPR cAMP Rel EC50 nM (SEM, n)
T3 construct: expressed in transfected cells; host or cells: HEK293
T3 sequence (P48546 22-466): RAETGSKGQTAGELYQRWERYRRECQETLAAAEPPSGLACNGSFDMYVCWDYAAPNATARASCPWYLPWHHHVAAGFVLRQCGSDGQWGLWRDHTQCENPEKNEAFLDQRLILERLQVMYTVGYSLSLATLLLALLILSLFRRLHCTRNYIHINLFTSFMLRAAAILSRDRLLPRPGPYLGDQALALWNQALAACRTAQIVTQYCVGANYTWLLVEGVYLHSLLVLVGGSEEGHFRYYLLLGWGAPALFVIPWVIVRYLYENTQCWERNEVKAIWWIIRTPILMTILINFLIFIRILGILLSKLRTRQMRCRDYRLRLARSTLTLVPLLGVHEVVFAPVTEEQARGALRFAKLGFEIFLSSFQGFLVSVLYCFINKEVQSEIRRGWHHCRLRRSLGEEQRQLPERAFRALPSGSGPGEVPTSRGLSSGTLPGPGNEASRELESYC

T2 sequence (P47871 26-477): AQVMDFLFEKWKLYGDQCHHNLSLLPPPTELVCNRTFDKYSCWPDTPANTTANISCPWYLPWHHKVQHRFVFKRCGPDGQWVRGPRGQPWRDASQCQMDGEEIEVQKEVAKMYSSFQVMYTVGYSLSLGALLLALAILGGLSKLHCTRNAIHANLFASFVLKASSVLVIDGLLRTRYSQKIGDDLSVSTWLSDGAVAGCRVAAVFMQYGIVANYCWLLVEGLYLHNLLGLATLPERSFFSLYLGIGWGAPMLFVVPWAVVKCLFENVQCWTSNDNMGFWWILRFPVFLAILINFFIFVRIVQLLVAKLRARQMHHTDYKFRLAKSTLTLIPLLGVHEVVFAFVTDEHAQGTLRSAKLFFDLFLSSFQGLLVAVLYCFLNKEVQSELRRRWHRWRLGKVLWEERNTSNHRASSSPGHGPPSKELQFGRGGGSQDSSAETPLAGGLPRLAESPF
T1 sequence (P43220 24-463): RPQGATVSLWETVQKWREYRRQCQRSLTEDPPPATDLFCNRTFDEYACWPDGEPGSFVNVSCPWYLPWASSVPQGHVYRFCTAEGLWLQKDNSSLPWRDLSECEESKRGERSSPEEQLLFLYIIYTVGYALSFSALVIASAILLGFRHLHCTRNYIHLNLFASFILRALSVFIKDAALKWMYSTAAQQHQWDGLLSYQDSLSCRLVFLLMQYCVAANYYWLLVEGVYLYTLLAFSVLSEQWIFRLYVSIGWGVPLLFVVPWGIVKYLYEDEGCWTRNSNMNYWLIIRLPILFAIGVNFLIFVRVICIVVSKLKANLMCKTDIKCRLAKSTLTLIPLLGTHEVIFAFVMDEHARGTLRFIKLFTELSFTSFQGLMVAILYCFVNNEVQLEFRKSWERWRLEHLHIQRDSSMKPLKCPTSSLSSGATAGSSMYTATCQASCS

| SMILES | EC50 [1] [nM] | EC50 [2] [nM] | EC50 [3] [nM] |
| --- | --- | --- | --- |
| CC[C@H](C)[C@H](NC(=O)[C@H](Cc1ccccc1)NC(=O)[C@@H](NC(=O)CNC(=O)[C@H](CCC(=O)O)NC(=O)C(C)(C)NC(=O)[C@@H](N)Cc1ccc(O)cc1)[C@@H](C)O)C(=O)N[C@@H](CO)C(=O)N[C@@H](CC(=O)O)C(=O)N[C@@H](Cc1ccc(O)cc1)C(=O)N[C@@H](CO)C(=O)N[C@H](C(=O)N[C@@](C)(CC(C)C)C(=O)N[C@@H](CC(C)C)C(=O)N[C@@H](CC(=O)O)C(=O)N[C@@H](CCCCN)C(=O)N[C@@H](CCCCNC(=O)COCCOCCNC(=O)COCCOCCNC(=O)CC[C@H](NC(=O)CCCCCCCCCCCCCCCCCCC(=O)O)C(=O)O)C(=O)N[C@@H](Cc1c[nH]cn1)C(=O)N[C@@H](CCC(N)=O)C(=O)NC(C)(C)C(=O)N[C@@H](CC(=O)O)C(=O)N[C@@H](Cc1ccccc1)C(=O)N[C@H](C(=O)N[C@@H](CCC(=O)O)C(=O)N[C@@H](Cc1ccncc1)C(=O)N[C@@H](CC(C)C)C(=O)N[C@@H](CC(C)C)C(=O)N[C@@H](C)C(=O)NCC(=O)NCC(=O)N1CCC[C@H]1C(=O)N[C@@H](CO)C(=O)N[C@@H](CO)C(=O)NCC(=O)N[C@@H](C)C(=O)N1CCC[C@H]1C(=O)N1CCC[C@H]1C(=O)N1CCC[C@H]1C(=O)N[C@@H](CO)C(N)=O)C(C)C)[C@@H](C)CC [Example 48] | > 5000 | 1360 | 0.0166 |
| CC[C@H](C)[C@H](NC(=O)[C@H](CO)NC(=O)[C@H](Cc1ccc(O)cc1)NC(=O)[C@H](CC(=O)O)NC(=O)[C@H](CO)NC(=O)[C@@H](NC(=O)[C@](C)(CC)NC(=O)[C@@H](NC(=O)CNC(=O)[C@H](CCC(=O)O)NC(=O)C(C)(C)NC(=O)[C@@H](N)Cc1ccc(O)cc1)[C@@H](C)O)[C@@H](C)CC)C(=O)N[C@@](C)(CC(C)C)C(=O)N[C@@H](CC(C)C)C(=O)N[C@@H](CC(=O)O)C(=O)N[C@@H](CCCCN)C(=O)N[C@@H](CCCCNC(=O)COCCOCCNC(=O)COCCOCCNC(=O)CC[C@H](NC(=O)CCCCCCCCCCCCCCCCCCC(=O)O)C(=O)O)C(=O)N[C@@H](Cc1c[nH]cn1)C(=O)N[C@@H](CCC(N)=O)C(=O)NC(C)(C)C(=O)N[C@@H](CC(=O)O)C(=O)N[C@@H](Cc1ccccc1)C(=O)N[C@H](C(=O)N[C@@H](CCC(=O)O)C(=O)N[C@@H](Cc1ccncc1)C(=O)N[C@@H](CC(C)C)C(=O)N[C@@H](CC(C)C)C(=O)N[C@@H](C)C(=O)NCC(=O)NCC(=O)N1CCC[C@H]1C(=O)N[C@@H](CO)C(=O)N[C@@H](CO)C(=O)NCC(=O)N[C@@H](C)C(=O)N1CCC[C@H]1C(=O)N1CCC[C@H]1C(=O)N1CCC[C@H]1C(=O)N[C@@H](CO)C(N)=O)C(C)C [Example 55] (H-Y[Aib]EGT[Iva]ISDYSI[αMeL]LDKK([AEEA-AEEA-γGlu-C20 diacid])HQ[Aib]DFVE[4Pal]LLAGGPSSGAPPPS-NH2) | > 5000 | > 5000 | 0.017 |
| CC[C@H](C)[C@H](NC(=O)[C@H](CO)NC(=O)[C@H](Cc1ccc(O)cc1)NC(=O)[C@H](CC(=O)O)NC(=O)[C@H](CO)NC(=O)[C@@H](NC(=O)[C@H](CC(C)C)NC(=O)[C@@H](NC(=O)CNC(=O)[C@H](CCC(=O)O)NC(=O)[C@@H](C)NC(=O)[C@@H](N)Cc1ccc(O)cc1)[C@@H](C)O)[C@@H](C)CC)C(=O)N[C@@H](CC(C)C)C(=O)N[C@@H](CC(C)C)C(=O)N[C@@H](CC(=O)O)C(=O)N[C@@H](CCCCN)C(=O)N[C@@H](CCCCNC(=O)COCCOCCNC(=O)COCCOCCNC(=O)CC[C@H](NC(=O)CCCCCCCCCCCCCCCCC(=O)O)C(=O)O)C(=O)N[C@@H](C)C(=O)N[C@@H](CCC(N)=O)C(=O)NC(C)(C)C(=O)N[C@@H](CC(=O)O)C(=O)N[C@@H](Cc1ccccc1)C(=O)N[C@H](C(=O)N[C@@H](CC(N)=O)C(=O)N[C@@H](Cc1c[nH]c2ccccc12)C(=O)N[C@@H](CC(C)C)C(=O)N[C@@H](CC(C)C)C(=O)N[C@@H](C)C(=O)N[C@@H](CCC(N)=O)C(=O)NCC(=O)N1CCC[C@H]1C(=O)N[C@@H](CO)C(=O)N[C@@H](CO)C(=O)NCC(=O)N[C@@H](C)C(=O)N1CCC[C@H]1C(=O)N1CCC[C@H]1C(=O)N1CCC[C@H]1C(=O)N[C@@H](CO)C(N)=O)C(C)C [Example 32] (H-Y[dA]EGTLISDYSILLDKK([AEEA-AEEA-γGlu-C18 diacid])AQ[Aib]DFVNWLLAQGPSSGAPPPS-NH2) | > 5000 | > 5000 | 0.00469 |
| CC[C@H](C)[C@H](NC(=O)[C@H](Cc1ccccc1)NC(=O)[C@@H](NC(=O)CNC(=O)[C@H](CCC(=O)O)NC(=O)C(C)(C)NC(=O)[C@@H](N)Cc1ccc(O)cc1)[C@@H](C)O)C(=O)N[C@@H](CO)C(=O)N[C@@H](CC(=O)O)C(=O)N[C@@H](Cc1ccc(O)cc1)C(=O)N[C@@H](CO)C(=O)N[C@H](C(=O)N[C@@](C)(CC(C)C)C(=O)N[C@@H](CC(C)C)C(=O)N[C@@H](CC(=O)O)C(=O)N[C@@H](CCCCN)C(=O)N[C@@H](CCCCNC(=O)COCCOCCNC(=O)COCCOCCNC(=O)CC[C@H](NC(=O)CCCCCCCCCCCCCCCCCCC(=O)O)C(=O)O)C(=O)N[C@@H](Cc1c[nH]cn1)C(=O)N[C@@H](CCC(N)=O)C(=O)NC(C)(C)C(=O)N[C@@H](CCC(=O)O)C(=O)N[C@@H](Cc1ccccc1)C(=O)N[C@H](C(=O)N[C@@H](CCC(=O)O)C(=O)N[C@@H](Cc1ccc(O)cc1)C(=O)N[C@@H](CC(C)C)C(=O)N[C@@H](CC(C)C)C(=O)N[C@@H](CCC(=O)O)C(=O)N[C@@H](CCC(N)=O)C(=O)NCC(=O)N1CCC[C@H]1C(=O)N[C@@H](CO)C(=O)N[C@@H](CO)C(=O)NCC(=O)N[C@@H](C)C(=O)N1CCC[C@H]1C(=O)N1CCC[C@H]1C(=O)N1CCC[C@H]1C(=O)N[C@@H](CO)C(N)=O)C(C)C)[C@@H](C)CC [Example 63] (H-Y[Aib]EGTFISDYSI[αMeL]LDKK([AEEA-AEEA-γGlu-C20 diacid])HQ[Aib]EFVEYLLEQGPSSGAPPPS-NH2) | > 5000 | 1170 | 0.0398 |
| CC[C@H](C)[C@H](NC(=O)[C@H](CO)NC(=O)[C@H](Cc1ccc(O)cc1)NC(=O)[C@H](CC(=O)O)NC(=O)[C@H](CO)NC(=O)[C@@H](NC(=O)[C@](C)(Cc1ccccc1)NC(=O)[C@@H](NC(=O)CNC(=O)[C@H](CCC(=O)O)NC(=O)C(C)(C)NC(=O)[C@@H](N)Cc1ccc(O)cc1)[C@@H](C)O)[C@@H](C)CC)C(=O)N[C@@](C)(CC(C)C)C(=O)N[C@@H](CC(C)C)C(=O)N[C@@H](CC(=O)O)C(=O)N[C@@H](CCCCN)C(=O)N[C@@H](CCCCNC(=O)COCCOCCNC(=O)COCCOCCNC(=O)CC[C@H](NC(=O)CCCCCCCCCCCCCCCCCCC(=O)O)C(=O)O)C(=O)N[C@@H](Cc1c[nH]cn1)C(=O)N[C@@H](CCC(N)=O)C(=O)NC(C)(C)C(=O)N[C@@H](CCC(=O)O)C(=O)N[C@@H](Cc1ccccc1)C(=O)N[C@H](C(=O)N[C@@H](CCC(=O)O)C(=O)N[C@@H](Cc1ccncc1)C(=O)N[C@@H](CC(C)C)C(=O)N[C@@H](CC(C)C)C(=O)N[C@@H](C)C(=O)N[C@H](C(=O)NCC(=O)N1CCC[C@H]1C(=O)N[C@@H](CO)C(=O)N[C@@H](CO)C(=O)NCC(=O)N[C@@H](C)C(=O)N1CCC[C@H]1C(=O)N1CCC[C@H]1C(=O)N1CCC[C@H]1C(=O)N[C@@H](CO)C(N)=O)[C@@H](C)O)C(C)C [Example 61] (H-Y[Aib]EGT[αMeF]ISDYSI[αMeL]LDKK([AEEA-AEEA-γGlu-C20 diacid])HQ[Aib]EFVE[4Pal]LLATGPSSGAPPPS-NH2) | 192 | > 5000 | 0.0167 |
| CC[C@H](C)[C@H](NC(=O)[C@H](Cc1ccccc1)NC(=O)[C@@H](NC(=O)CNC(=O)[C@H](CCC(=O)O)NC(=O)C(C)(C)NC(=O)[C@@H](N)Cc1ccc(O)cc1)[C@@H](C)O)C(=O)N[C@@H](CO)C(=O)N[C@@H](CC(=O)O)C(=O)N[C@@H](Cc1ccc(O)cc1)C(=O)N[C@@H](CO)C(=O)N[C@H](C(=O)N[C@@](C)(CC(C)C)C(=O)N[C@@H](CC(C)C)C(=O)N[C@@H](CC(=O)O)C(=O)N[C@@H](CCCCN)C(=O)N[C@@H](CCCCNC(=O)COCCOCCNC(=O)COCCOCCNC(=O)CC[C@H](NC(=O)CCCCCCCCCCCCCCCCCCC(=O)O)C(=O)O)C(=O)N[C@@H](Cc1c[nH]cn1)C(=O)N[C@@H](CCC(N)=O)C(=O)NC(C)(C)C(=O)N[C@@H](CC(=O)O)C(=O)N[C@@H](Cc1ccccc1)C(=O)N[C@H](C(=O)N[C@@H](CCC(=O)O)C(=O)N[C@@H](Cc1ccncc1)C(=O)N[C@@H](CC(C)C)C(=O)N[C@@H](CC(C)C)C(=O)N[C@@H](C)C(=O)N[C@H](C(=O)NCC(=O)N1CCC[C@H]1C(=O)N[C@@H](CO)C(=O)N[C@@H](CO)C(=O)NCC(=O)N[C@@H](C)C(=O)N1CCC[C@H]1C(=O)N1CCC[C@H]1C(=O)N1CCC[C@H]1C(=O)N[C@@H](CO)C(N)=O)[C@@H](C)O)C(C)C)[C@@H](C)CC [Example 70] (H-Y[Aib]EGTFISDYSI[αMeL]LDKK([AEEA-AEEA-γGlu-C20 diacid])HQ[Aib]DFVE[4Pal]LLATGPSSGAPPPS-NH2) | > 5000 | 3560 | 0.0254 |

Source: patent US12723063B2, “GIPR-agonist compounds” (Eli Lilly and Company, priority 2019, dated 2026)
